{
  "source": "the supplement of paper PMC10307832",
  "data": [
    {"compound": "C[C@@H](C(=O)N[C@@H](C1CCCCC1)C(=O)N2CCC[C@H]2C(=O)N[C@@H]3[C@@H](CC4=CC=CC=C34)OCC#CC#CCO[C@@H]5CC6=CC=CC=C6[C@@H]5NC(=O)[C@@H]7CCCN7C(=O)[C@H](C8CCCCC8)NC(=O)[C@H](C)NC)NC [AZD5582] + O=C(c1cc(Cc2n[nH]c(=O)c3ccccc23)ccc1F)N1CCN(C(=O)C2CC2)CC1 [Olaparib] (partner 8 µM)", "experiment": "relative viability (nuclei count vs DMSO), 5 days (fraction); higher = more cells survive", "details": "first compound 0.01581 µM", "method_in_brief": "(§1)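 Five library-drug doses in √10 steps were combined with a fixed anchor-drug dose, or a single drug was given alone, by pin tool to lung cancer cell lines in 1536-well plates the day after seeding. Nuclei were stained and counted after 5 days. Relative viability is the nuclei count in treated wells over that in vehicle wells, taken as the median of duplicate plates.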", "values": [
      {"cell line": "NCI-H647", "relative viability": 0.6},
      {"cell line": "NCI-H650", "relative viability": 0.366},
      {"cell line": "NCI-H727", "relative viability": 0.65},
      {"cell line": "NCI-H838", "relative viability": 0.711},
      {"cell line": "NCI-H1355", "relative viability": 0.658},
      {"cell line": "NCI-H1437", "relative viability": 0.648},
      {"cell line": "NCI-H1651", "relative viability": 0.18},
      {"cell line": "NCI-H1666", "relative viability": 0.674},
      {"cell line": "NCI-H1734", "relative viability": 0.615},
      {"cell line": "NCI-H1755", "relative viability": 0.938},
      {"cell line": "NCI-H1792", "relative viability": 0.337},
      {"cell line": "NCI-H1793", "relative viability": 0.75},
      {"cell line": "NCI-H1915", "relative viability": 0.25},
      {"cell line": "NCI-H1944", "relative viability": 0.365},
      {"cell line": "NCI-H1975", "relative viability": 0.764},
      {"cell line": "NCI-H1993", "relative viability": 1.06},
      {"cell line": "NCI-H2085", "relative viability": 0.726}
    ]},
    {"compound": "C[C@@H](C(=O)N[C@@H](C1CCCCC1)C(=O)N2CCC[C@H]2C(=O)N[C@@H]3[C@@H](CC4=CC=CC=C34)OCC#CC#CCO[C@@H]5CC6=CC=CC=C6[C@@H]5NC(=O)[C@@H]7CCCN7C(=O)[C@H](C8CCCCC8)NC(=O)[C@H](C)NC)NC [AZD5582] + O=C(c1cc(Cc2n[nH]c(=O)c3ccccc23)ccc1F)N1CCN(C(=O)C2CC2)CC1 [Olaparib] (partner 8 µM)", "experiment": "relative viability (nuclei count vs DMSO), 5 days (fraction); higher = more cells survive", "details": "first compound 0.05 µM", "method_in_brief": "as §1", "values": [
      {"cell line": "LK-2", "relative viability": 0.675},
      {"cell line": "LOU-NH91", "relative viability": 0.903},
      {"cell line": "LU99A", "relative viability": 0.266},
      {"cell line": "LXF-289", "relative viability": 1.02},
      {"cell line": "NCI-H23", "relative viability": 0.236},
      {"cell line": "NCI-H322M", "relative viability": 0.882},
      {"cell line": "NCI-H358", "relative viability": 0.791},
      {"cell line": "NCI-H441", "relative viability": 0.395},
      {"cell line": "NCI-H460", "relative viability": 0.413},
      {"cell line": "NCI-H596", "relative viability": 0.252},
      {"cell line": "NCI-H647", "relative viability": 0.589},
      {"cell line": "NCI-H650", "relative viability": 0.307},
      {"cell line": "NCI-H727", "relative viability": 0.781},
      {"cell line": "NCI-H838", "relative viability": 0.743},
      {"cell line": "NCI-H1355", "relative viability": 0.774},
      {"cell line": "NCI-H1395", "relative viability": 0.464},
      {"cell line": "NCI-H1437", "relative viability": 0.623},
      {"cell line": "NCI-H1651", "relative viability": 0.163},
      {"cell line": "NCI-H1666", "relative viability": 0.77},
      {"cell line": "NCI-H1734", "relative viability": 0.746},
      {"cell line": "NCI-H1755", "relative viability": 0.939},
      {"cell line": "NCI-H1792", "relative viability": 0.409},
      {"cell line": "NCI-H1793", "relative viability": 1.23},
      {"cell line": "NCI-H1915", "relative viability": 0.226},
      {"cell line": "NCI-H1944", "relative viability": 0.446},
      {"cell line": "NCI-H1975", "relative viability": 0.951},
      {"cell line": "NCI-H1993", "relative viability": 1.12},
      {"cell line": "NCI-H2085", "relative viability": 0.733}
    ]},
    {"compound": "Cn1nnc2c(C(N)=O)ncn2c1=O [Temozolomide] + CS(=O)(=O)N1CCN(Cc2cc3nc(-c4cccc5[nH]ncc45)nc(N4CCOCC4)c3s2)CC1 [Pictilisib] (partner 1 µM)", "experiment": "relative viability (nuclei count vs DMSO), 5 days (fraction); higher = more cells survive", "details": "first compound 0.2 µM", "method_in_brief": "as §1", "values": [
      {"cell line": "LK-2", "relative viability": 0.48},
      {"cell line": "LOU-NH91", "relative viability": 0.512},
      {"cell line": "LU99A", "relative viability": 0.325},
      {"cell line": "LXF-289", "relative viability": 0.814},
      {"cell line": "NCI-H23", "relative viability": 0.563},
      {"cell line": "NCI-H358", "relative viability": 0.342},
      {"cell line": "NCI-H441", "relative viability": 0.437},
      {"cell line": "NCI-H460", "relative viability": 0.326},
      {"cell line": "NCI-H596", "relative viability": 0.421},
      {"cell line": "NCI-H647", "relative viability": 0.419},
      {"cell line": "NCI-H650", "relative viability": 0.875},
      {"cell line": "NCI-H727", "relative viability": 0.324},
      {"cell line": "NCI-H838", "relative viability": 0.45},
      {"cell line": "NCI-H1355", "relative viability": 0.433},
      {"cell line": "NCI-H1395", "relative viability": 0.554},
      {"cell line": "NCI-H1437", "relative viability": 0.474},
      {"cell line": "NCI-H1651", "relative viability": 0.567},
      {"cell line": "NCI-H1666", "relative viability": 0.433},
      {"cell line": "NCI-H1734", "relative viability": 0.508},
      {"cell line": "NCI-H1755", "relative viability": 0.507}
    ]}
  ]
}
